Activity calls are given as the source filed them. How the calls were made is not given here.
Tested on: CCRIS mutagenicity, Ames/micronucleus/aberration tests
Assay: CCRIS mutagenicity studies
[1] = Test System: AMES SALMONELLA TYPHIMURIUM, Strain/Indicator: TA98, Metabolic Activation: NONE, Method: STANDARD PLATE
[2] = Test System: AMES SALMONELLA TYPHIMURIUM, Strain/Indicator: TA98, Metabolic Activation: RAT, LIVER, S-9, AROCLOR 1254, Method: STANDARD PLATE
[3] = Test System: AMES SALMONELLA TYPHIMURIUM, Strain/Indicator: TA100, Metabolic Activation: NONE, Method: STANDARD PLATE
[4] = Test System: AMES SALMONELLA TYPHIMURIUM, Strain/Indicator: TA1538, Metabolic Activation: NONE, Method: STANDARD PLATE
[5] = Test System: AMES SALMONELLA TYPHIMURIUM, Strain/Indicator: TA98, Metabolic Activation: NONE, Method: PREINCUBATION
[6] = Test System: AMES SALMONELLA TYPHIMURIUM, Strain/Indicator: TA100, Metabolic Activation: NONE, Method: PREINCUBATION
[7] = Test System: CHINESE HAMSTER V-79, Strain/Indicator: V-79/6-THIOGUANINE, Metabolic Activation: NONE
[8] = Test System: AMES SALMONELLA TYPHIMURIUM, Strain/Indicator: TA100, Metabolic Activation: S-9, Method: STANDARD PLATE
[9] = Test System: AMES SALMONELLA TYPHIMURIUM, Strain/Indicator: TA100, Metabolic Activation: RAT, LIVER, S-9, AROCLOR 1254, Method: PREINCUBATION

CC(C)c1cc(N)cc([N+](=O)[O-])c1N
mutagenic call [1]: inactive; negative
mutagenic call [2]: inactive; negative
mutagenic call [3]: inactive; negative
mutagenic call (Test System: AMES SALMONELLA TYPHIMURIUM, Strain/Indicator: TA100, Metabolic Activation: RAT, LIVER, S-9, AROCLOR 1254, Method: STANDARD PLATE): inactive; negative
mutagenic call [4]: inactive; negative
mutagenic call (Test System: AMES SALMONELLA TYPHIMURIUM, Strain/Indicator: TA1538, Metabolic Activation: RAT, LIVER, S-9, AROCLOR 1254, Method: STANDARD PLATE): inactive; negative

Cc1c2ccccc2cc2c3c(ccc12)C(O)C(O)[C@@H]1O[C@@H]31 (stereo partly specified)
mutagenic call [5]: active; positive
mutagenic call [6]: active; positive
mutagenic call [7]: active; positive

OCC12OOC1(CO)c1ccccc1O2 (stereo unspecified)
mutagenic call [6]: inactive; negative

CC1(C)C[C@H]2C=C(C=O)[C@@]3(C=O)C[C@@]3(C)[C@H]2C1
mutagenic call (Test System: CHINESE HAMSTER V-79, Strain/Indicator: V-79/6-THIOGUANINE (HGPRT), Metabolic Activation: NONE): inactive; negative

O=C(N=c1sn(C(=O)c2ccc([N+](=O)[O-])cc2)c2ccccc12)c1ccc([N+](=O)[O-])cc1
mutagenic call [8]: active; positive

CC(=O)ON(C(C)=O)c1ccc2c(c1)Cc1ccccc1-2
mutagenic call [1]: active; positive
mutagenic call [2]: active; positive
mutagenic call [4]: active; positive
mutagenic call (Test System: AMES SALMONELLA TYPHIMURIUM, Strain/Indicator: TA1538, Metabolic Activation: RAT, LIVER, S-9, KC500 OR PHENOBARBITAL, Method: LIQUID SUSPENSION): active; positive
mutagenic call [7]: active; positive
mutagenic call (Test System: CHINESE HAMSTER V-79, Strain/Indicator: V-79/8-AZAGUANINE, Metabolic Activation: NONE, Method: STANDARD PLATE): active; positive
mutagenic call (Test System: UDS HUMAN CELLS, Strain/Indicator: THY INCORP (NON-S-PHASE), Metabolic Activation: NONE, Method: LIQUID SCINTILLATION COUNTING): active; positive
mutagenic call (Test System: UDS HUMAN FIBROBLASTS, Strain/Indicator: THY INCORP (NON-S-PHASE), Metabolic Activation: NONE, Method: AUTORADIOGRAPHY): active; positive
mutagenic call (Test System: UDS HUMAN FIBROBLASTS, Strain/Indicator: THY INCORP (NON-S-PHASE), Metabolic Activation: NONE, Method: LIQUID SCINTILLATION COUNTING): active; positive
mutagenic call (Test System: UDS HUMAN LYMPHOCYTES, Strain/Indicator: THY INCORP (NON-S-PHASE), Metabolic Activation: NONE, Method: LIQUID SCINTILLATION COUNTING): active; positive
mutagenic call (Test System: UDS RODENT CELLS, Strain/Indicator: THY INCORP (NON-S-PHASE), Metabolic Activation: NONE, Method: AUTORADIOGRAPHY): active; positive
mutagenic call (Test System: UDS RODENT CELLS, Strain/Indicator: THY INCORP (NON-S-PHASE), Metabolic Activation: NONE, Method: LIQUID SCINTILLATION COUNTING): active; positive
mutagenic call (Test System: UDS RODENT HEPATOCYTES, Strain/Indicator: THY INCORP (NON-S-PHASE), Method: LIQUID SCINTILLATION COUNTING): active; positive
mutagenic call (Test System: UDS RODENT PRIMARY CELLS, Strain/Indicator: THY INCORP (NON-S-PHASE), Metabolic Activation: NONE, Method: AUTORADIOGRAPHY): active; positive

O=[N+]([O-])c1ccc(/C=C/c2cccc([N+](=O)[O-])c2)cc1
mutagenic call (Test System: AMES SALMONELLA TYPHIMURIUM, Strain/Indicator: TA98 (NR), Metabolic Activation: NONE, Method: STANDARD PLATE): active; positive
mutagenic call (Test System: AMES SALMONELLA TYPHIMURIUM, Strain/Indicator: TA98 (NR), Metabolic Activation: S-9, Method: STANDARD PLATE): inactive; negative
mutagenic call [1]: active; positive
mutagenic call (Test System: AMES SALMONELLA TYPHIMURIUM, Strain/Indicator: TA98, Metabolic Activation: S-9, Method: STANDARD PLATE): active; positive
mutagenic call (Test System: AMES SALMONELLA TYPHIMURIUM, Strain/Indicator: TA100 (NR), Metabolic Activation: NONE, Method: STANDARD PLATE): inactive; negative
mutagenic call (Test System: AMES SALMONELLA TYPHIMURIUM, Strain/Indicator: TA100 (NR), Metabolic Activation: S-9, Method: STANDARD PLATE): inactive; negative
mutagenic call [3]: active; positive
mutagenic call [8]: active; positive

O[C@@H]1C=Cc2c(ccc3c2sc2ccccc23)[C@H]1O
mutagenic call [9]: active; positive

O=S(=O)(O)OCc1cc2ccccc2c2ccc3ccccc3c12
mutagenic call [5]: active; positive

COc1c2ccccc2[n+]([O-])c2occc12
mutagenic call [1]: inactive; negative
mutagenic call (Test System: AMES SALMONELLA TYPHIMURIUM, Strain/Indicator: TA98, Metabolic Activation: RAT LIVER S-9, PHENOBARTITAL, Method: STANDARD PLATE): inactive; negative

OC1CCCCC1
mutagenic call (Test System: AMES SALMONELLA TYPHIMURIUM, Strain/Indicator: TA98, Metabolic Activation: HAMSTER, LIVER, S-9, AROCLOR 1254, Method: PREINCUBATION): inactive; negative
mutagenic call [5]: inactive; negative
mutagenic call (Test System: AMES SALMONELLA TYPHIMURIUM, Strain/Indicator: TA98, Metabolic Activation: RAT, LIVER, S-9, AROCLOR 1254, Method: PREINCUBATION): inactive; negative
mutagenic call (Test System: AMES SALMONELLA TYPHIMURIUM, Strain/Indicator: TA100, Metabolic Activation: HAMSTER, LIVER, S-9, AROCLOR 1254, Method: PREINCUBATION): inactive; negative
mutagenic call [6]: inactive; negative
mutagenic call [9]: inactive; negative
mutagenic call (Test System: AMES SALMONELLA TYPHIMURIUM, Strain/Indicator: TA1535, Metabolic Activation: HAMSTER, LIVER, S-9, AROCLOR 1254, Method: PREINCUBATION): inactive; negative
mutagenic call (Test System: AMES SALMONELLA TYPHIMURIUM, Strain/Indicator: TA1535, Metabolic Activation: NONE, Method: PREINCUBATION): inactive; negative
mutagenic call (Test System: AMES SALMONELLA TYPHIMURIUM, Strain/Indicator: TA1535, Metabolic Activation: RAT, LIVER, S-9, AROCLOR 1254, Method: PREINCUBATION): inactive; negative
mutagenic call (Test System: AMES SALMONELLA TYPHIMURIUM, Strain/Indicator: TA1537, Metabolic Activation: HAMSTER, LIVER, S-9, AROCLOR 1254, Method: PREINCUBATION): inactive; negative
mutagenic call (Test System: AMES SALMONELLA TYPHIMURIUM, Strain/Indicator: TA1537, Metabolic Activation: NONE, Method: PREINCUBATION): inactive; negative
mutagenic call (Test System: AMES SALMONELLA TYPHIMURIUM, Strain/Indicator: TA1537, Metabolic Activation: RAT, LIVER, S-9, AROCLOR 1254, Method: PREINCUBATION): inactive; negative

[Cl][La]([Cl])[Cl]
mutagenic call (Test System: E. COLI, Strain/Indicator: WP2 UVRA, Metabolic Activation: NONE, Method: SPOT TEST): inactive; negative

Source: PubChem BioAssay AID1259407 (Chemical Carcinogenesis Research Information System (CCRIS), 2018)
